How the values were obtained:
Assay type in all cases: in vivo
Myzus persicae [1] = test: Example B11: Myzus persicae (green peach aphid), sucrose solution 96-well; settings: 120 h, application rate of 50 ppm, 5 days after infestation
Source text: Example B11: Myzus persicae (Green Peach Aphid)
Test compounds prepared from 10,000 ppm DMSO stock solutions were applied by a liquid handling robot into 96-well microtiter plates and mixed with a sucrose solution. Parafilm was stretched over the 96-well microtiter plate and a plastic stencil with 96 holes was placed onto the plate. Aphids were sieved into the wells directly onto the Parafilm. The infested plates were closed with a gel blotting card and a second plastic stencil and then turned upside down. The samples were assessed for mortality 5 days after infestation.

Plutella xylostella [2] = test: Example B12: Plutella xylostella (diamondback moth), artificial diet 96-well; settings: 216 h, application rate of 500 ppm, 9 days after infestation
Protocol: Example B12: Plutella xylostella (Diamondback Moth)
96-well microtiter plates containing artificial diet were treated with aqueous test solutions, prepared from 10,000 ppm DMSO stock solutions, by a liquid handling robot. After drying, eggs (-30 per well) were infested onto a netted lid which was suspended above the diet. The eggs hatch and L1 larvae move down to the diet. The samples were assessed for mortality 9 days after infestation.
The following compounds gave an effect of at least 80% average mortality at an application rate of 500 ppm: […]

Chilo suppressalis = test: Example B1: Chilo suppressalis (striped rice stemborer), artificial diet, L2 larvae; settings: 144 h, application rate of 200 ppm, 6 days after infestation, read-out: control in at least one of the three categories (mortality, anti-feedant effect, or growth inhibition)
Procedure, shortened: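 L2 larvae (6-8 per well) were placed on dried artificial diet that had been dosed with aqueous dilutions of 10,000 ppm DMSO stock solutions. After 6 days, control was credited if mortality, antifeedant effect or growth inhibition was higher than in untreated samples.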

Myzus persicae [3] = test: Example B7: Myzus persicae (green peach aphid), intrinsic activity, sucrose solution 24-well; settings: 120 h, application rate of 12.5 ppm, 5 days after infestation, read-out: control (mortality)
Procedure, shortened: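 Compounds from 10,000 ppm DMSO stocks were mixed into sucrose solution in wells at a rate of 12.5 ppm. Aphid-infested pea seedlings were placed on a Parafilm membrane over the solution, so aphids fed through it. Mortality was scored 5 days after infestation.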

Spodoptera littoralis [4] = test: Example B9: Spodoptera littoralis (Egyptian cotton leaf worm), cotton leaf discs, L1 larvae; settings: foliar, 72 h, application rate of 200 ppm, 3 days after infestation, read-out: control in at least one of the three categories (mortality, anti-feedant effect, or growth inhibition)
Procedure, shortened: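 Five L1 larvae placed on sprayed, dried cotton leaf discs; spray solutions aqueous, from 10,000 ppm DMSO stocks. Control given when mortality, anti-feedant effect or growth inhibition exceeds untreated samples at 3 days.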

Diabrotica balteata = test: Example B2: Diabrotica balteata (corn root worm), maize sprouts, L2 larvae; settings: 96 h, application rate of 200 ppm, 4 days after infestation, read-out: control in at least one of the two categories (mortality or growth inhibition)
Procedure, shortened: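 Maize sprouts on agar sprayed with aqueous test solutions made from 10,000 ppm DMSO stocks, dried, then infested with 6 to 10 L2 larvae per well. Mortality and growth inhibition assessed versus untreated samples 4 days after infestation; application rate 200 ppm.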

Plutella xylostella [5] = test: Example B8: Plutella xylostella (diamond back moth), artificial diet 24-well, eggs; settings: 192 h, application rate of 200 ppm, 8 days after infestation, read-out: effect in at least one of the two categories (mortality or growth inhibition)
Procedure, shortened: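 Plutella eggs placed onto dried, compound-treated artificial diet, the aqueous test solutions diluted from 10,000 ppm DMSO stocks. Eight days post-infestation, larvae rated for mortality and growth inhibition relative to untreated controls.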

[6] = system: Frankliniella occidentalis; test: Example B4: Frankliniella occidentalis (western flower thrips), feeding/contact activity; settings: 168 h, application rate of 200 ppm, 7 days after infestation
Protocol: Example B4: Frankliniella occidentalis (Western Flower Thrips):Feeding/Contact Activity
Sunflower leaf discs were placed on agar in 24-well microtiter plates and sprayed with aqueous test solutions prepared from 10,000 DMSO stock solutions. After drying the leaf discs were infested with a Frankliniella population of mixed ages. The samples were assessed for mortality 7 days after infestation.

Myzus persicae [7] = test: Example B5: Myzus persicae (green peach aphid), feeding/contact activity; settings: 144 h, application rate of 200 ppm, 6 days after infestation
Protocol: Example B5: Myzus persicae (Green Peach Aphid):Feeding/Contact Activity
Sunflower leaf discs were placed onto agar in a 24-well microtiter plate and sprayed with aqueous test solutions prepared from 10,000 ppm DMSO stock solutions. After drying, the leaf discs were infested with an aphid population of mixed ages. The samples were assessed for mortality 6 days after infestation.

Euschistus heros = test: Example B3: Euschistus heros (neotropical brown stink bug), soybean leaves, N2 nymphs; settings: 120 h, application rate of 200 ppm, 5 days after infestation, read-out: control in at least one of the two categories (mortality or growth inhibition)
Protocol: Example B3: Euschistus heros (Neotropical Brown Stink Bug)
Soybean leaves on agar in 24-well microtiter plates were sprayed with aqueous test solutions prepared from 10,000 ppm DMSO stock solutions. After drying the leaves were infested with N2 nymphs. The samples were assessed for mortality and growth inhibition in comparison to untreated samples 5 days after infestation.
The following compounds gave an effect of at least 80% control in at least one of the two categories (mortality or growth inhibition) at an application rate of 200 ppm: […]

Myzus persicae [8] = test: Example B6: Myzus persicae (green peach aphid), systemic activity, pea seedlings; settings: 144 h, test rate of 24 ppm, 6 days after placing seedlings into test solutions
Protocol: Example B6: Myzus persicae (Green Peach Aphid). Systemic Activity
Roots of pea seedlings infested with an aphid population of mixed ages were placed directly into aqueous test solutions prepared from 10,000 DMSO stock solutions. The samples were assessed for mortality 6 days after placing seedlings into test solutions.

Spodoptera littoralis [9] = test: Example B10: Spodoptera littoralis (Egyptian cotton leaf worm), uptake by lettuce roots from agar; settings: 144 h, test rate of 12.5 ppm, 6 days after infestation, read-out: effect in at least one of the three categories (mortality, anti-feeding, or growth inhibition)
Source text: Example B10: Spodoptera littoralis (Egyptian Cotton Leaf Worm)
Test compounds were applied by pipette from 10,000 ppm DMSO stock solutions into 24-well plates and mixed with agar. Lettuce seeds were placed onto the agar and the multi well plate was closed by another plate which also contained agar. After 7 days the compound was absorbed by the roots and the lettuce grew into the lid plate. The lettuce leaves were then cut off into the lid plate. Spodoptera eggs were pipetted through a plastic stencil onto a humid gel blotting paper and the lid plate was closed with it. The samples were assessed for mortality, anti-feedant effect and growth inhibition in comparison to untreated samples 6 days after infestation.
The following compounds gave an effect of at least 80% in at least one of the three categories (mortality, anti-feeding, or growth inhibition) at a test rate of 12.5 ppm: […]

CC(NC(=O)Nc1ccc(Cl)cc1C(F)(F)F)c1ncnn1-c1ncccn1 (stereo not drawn) [Example P6, 1-[4-chloro-2-(trifluoromethyl)phenyl]-3-[1-(2-pyrimidin-2-yl-1,2,4-triazol-3-yl)ethyl]urea]
≥ 80%: mortality at 50 ppm (Myzus persicae [1]) | mortality at 500 ppm (Plutella xylostella [2]) | percent control (mortality, anti-feedant effect or growth inhibition) at 200 ppm (Chilo suppressalis) | mortality at 12.5 ppm (Myzus persicae [3]) | percent control (mortality, anti-feedant effect or growth inhibition) at 200 ppm (Spodoptera littoralis [4]) | percent control (mortality or growth inhibition) at 200 ppm (Diabrotica balteata) | percent effect (mortality or growth inhibition) at 200 ppm (Plutella xylostella [5])

C[C@H](NC(=O)Nc1cnc(C(F)(F)F)cc1Cl)c1ncnn1-c1ncccn1 [Example P103, 1-[4-chloro-6-(trifluoromethyl)-3-pyridyl]-3-[(1S)-1-(2-pyrimidin-2-yl-1,2,4-triazol-3-yl)ethyl]urea]
≥ 80%: mortality at 50 ppm (Myzus persicae [1]) | percent control (mortality, anti-feedant effect or growth inhibition) at 200 ppm (Chilo suppressalis) | mortality at 12.5 ppm (Myzus persicae [3]) | mortality at 200 ppm [6] | mortality at 200 ppm (Myzus persicae [7]) | percent control (mortality or growth inhibition) at 200 ppm (Euschistus heros) | percent control (mortality, anti-feedant effect or growth inhibition) at 200 ppm (Spodoptera littoralis [4]) | percent control (mortality or growth inhibition) at 200 ppm (Diabrotica balteata) | mortality at 24 ppm (Myzus persicae [8]) | percent effect (mortality or growth inhibition) at 200 ppm (Plutella xylostella [5])

C[C@H](NC(=O)N(C)c1cnc(C(F)(F)F)cc1Cl)c1ncnn1-c1ncccn1 [Example P235, 1-[4-chloro-6-(trifluoromethyl)-3-pyridyl]-1-methyl-3-[(1S)-1-(2-pyrimidin-2-yl-1,2,4-triazol-3-yl)ethyl]urea]
≥ 80%: percent control (mortality, anti-feedant effect or growth inhibition) at 200 ppm (Chilo suppressalis) | mortality at 12.5 ppm (Myzus persicae [3]) | mortality at 200 ppm [6] | mortality at 200 ppm (Myzus persicae [7]) | percent control (mortality or growth inhibition) at 200 ppm (Euschistus heros) | mortality at 24 ppm (Myzus persicae [8]) | percent effect (mortality or growth inhibition) at 200 ppm (Plutella xylostella [5])

CC(NC(=O)Nc1ccc(C(F)(F)F)cc1Cl)c1ncnn1-c1ccc(C#N)cn1 (stereo not drawn) [Example P4, 1-[2-chloro-4-(trifluoromethyl)phenyl]-3-[1-[2-(5-cyano-2-pyridyl)-1,2,4-triazol-3-yl]ethyl]urea]
≥ 80%: mortality at 500 ppm (Plutella xylostella [2]) | percent control (mortality, anti-feedant effect or growth inhibition) at 200 ppm (Chilo suppressalis) | percent control (mortality, anti-feedant effect or growth inhibition) at 200 ppm (Spodoptera littoralis [4]) | percent control (mortality or growth inhibition) at 200 ppm (Diabrotica balteata) | percent effect (mortality or growth inhibition) at 200 ppm (Plutella xylostella [5])

C[C@H](NC(=O)Nc1cc(OC(F)(F)C(F)F)c(Cl)cc1Cl)c1ncnn1-c1ncccn1 [Example P46, 1-[2,4-dichloro-5-(1,1,2,2-tetrafluoroethoxy)phenyl]-3-[(1S)-1-(2-pyrimidin-2-yl-1,2,4-triazol-3-yl)ethyl]urea]
≥ 80%: mortality at 50 ppm (Myzus persicae [1]) | percent control (mortality, anti-feedant effect or growth inhibition) at 200 ppm (Chilo suppressalis) | mortality at 12.5 ppm (Myzus persicae [3]) | mortality at 200 ppm (Myzus persicae [7]) | percent control (mortality or growth inhibition) at 200 ppm (Euschistus heros) | percent control (mortality, anti-feedant effect or growth inhibition) at 200 ppm (Spodoptera littoralis [4]) | percent control (mortality or growth inhibition) at 200 ppm (Diabrotica balteata) | percent effect (mortality or growth inhibition) at 200 ppm (Plutella xylostella [5])

C[C@H](NC(=O)N1CCc2cc(C(F)(F)F)ncc21)c1ncnn1-c1ncccn1 [Example P172, N-[(1S)-1-(2-pyrimidin-2-yl-1,2,4-triazol-3-yl)ethyl]-5-(trifluoromethyl)-2,3-dihydropyrrolo[2,3-c]pyridine-1-carboxamide]
≥ 80%: percent control (mortality, anti-feedant effect or growth inhibition) at 200 ppm (Chilo suppressalis) | mortality at 12.5 ppm (Myzus persicae [3]) | mortality at 200 ppm (Myzus persicae [7]) | percent control (mortality or growth inhibition) at 200 ppm (Euschistus heros) | percent control (mortality, anti-feedant effect or growth inhibition) at 200 ppm (Spodoptera littoralis [4]) | percent control (mortality or growth inhibition) at 200 ppm (Diabrotica balteata) | mortality at 24 ppm (Myzus persicae [8]) | percent effect (mortality or growth inhibition) at 200 ppm (Plutella xylostella [5])

COc1cc(C(F)(F)F)ncc1NC(=O)N[C@@H](C)c1ncnn1-c1ncccn1 [Example P348, 1-[4-methoxy-6-(trifluoromethyl)-3-pyridyl]-3-[(1S)-1-(2-pyrimidin-2-yl-1,2,4-triazol-3-yl)ethyl]urea]
≥ 80%: percent control (mortality, anti-feedant effect or growth inhibition) at 200 ppm (Chilo suppressalis) | mortality at 12.5 ppm (Myzus persicae [3]) | mortality at 200 ppm (Myzus persicae [7]) | percent control (mortality or growth inhibition) at 200 ppm (Euschistus heros) | percent control (mortality, anti-feedant effect or growth inhibition) at 200 ppm (Spodoptera littoralis [4]) | mortality at 24 ppm (Myzus persicae [8])

CC(NC(=O)Nc1ccc(C(F)(F)F)cc1Cl)c1ncnn1-c1ncccn1 (stereo not drawn) [Example P5, 1-[2-chloro-4-(trifluoromethyl)phenyl]-3-[1-(2-pyrimidin-2-yl-1,2,4-triazol-3-yl)ethyl]urea]
≥ 80%: mortality at 50 ppm (Myzus persicae [1]) | mortality at 500 ppm (Plutella xylostella [2]) | percent control (mortality, anti-feedant effect or growth inhibition) at 200 ppm (Chilo suppressalis) | mortality at 12.5 ppm (Myzus persicae [3]) | percent effect (mortality, anti-feeding or growth inhibition) at 12.5 ppm (Spodoptera littoralis [9]) | percent control (mortality or growth inhibition) at 200 ppm (Euschistus heros) | percent control (mortality, anti-feedant effect or growth inhibition) at 200 ppm (Spodoptera littoralis [4]) | percent control (mortality or growth inhibition) at 200 ppm (Diabrotica balteata) | percent effect (mortality or growth inhibition) at 200 ppm (Plutella xylostella [5])

Reference: patent US20240108006A1, “PESTICIDALLY ACTIVE HETEROAROMATIC COMPOUNDS” (SYNGENTA CROP PROTECTION AG, priority 2021, published 2024)
